Measurements: ChEMBL document CHEMBL1125035, “Synthesis and biological activity of novel vitamin D analogues: 24,24-difluoro-25-hydroxy-26,27-dimethylvitamin D3 and 24,24-difluoro-1 alpha,25-dihydroxy-26,27-dimethylvitamin D3” (1990)

Tests used:
[1] = Relative potency against calcium binding protein induction in duodenal organ culture at a concentration of 10 nM compared to 1,25-(OH)2-D3 in Male Albino rats; assay type: functional
[2] = tested on: Rattus norvegicus; experiment: Ability to mobilize Bone-Calcium transport, following the administration of compound in rats at a concentration of 50 pmol at 13 hr.; assay type: functional, organism-based
[3] = organism: Rattus norvegicus; experiment: Calcium binding protein induction in duodenal organ culture at a concentration of 10 nM in Male Albino rats; assay type: functional
[4] = tested on: Rattus norvegicus; experiment: Ability to mobilize Bone-Calcium transport, following the administration of compound in rats at a concentration of 50 pmol at 72 hr.; assay type: functional, organism-based
[5] = tested on: Rattus norvegicus; experiment: Ability to mobilize Bone-Calcium transport, following the administration of compound in rats at a concentration of 5 pmol at 47 hr.; assay type: functional, organism-based
[6] = tested on: Rattus norvegicus; experiment: Ability to mobilize Bone-Calcium transport, following the administration of compound in rats at a concentration of 5000 pmol at 47 hr.; assay type: functional, organism-based
[7] = tested on: Rattus norvegicus; experiment: Ability to mobilize Bone-Calcium transport, following the administration of compound in rats at a concentration of 5 pmol at 13 hr.; assay type: functional, organism-based
[8] = tested on: Rattus norvegicus; experiment: Ability to stimulate intestinal-calcium transport by the administration of compound in rats at a concentration of 5000 pmol at 47 hr.; assay type: functional, Intestine
[9] = tested on: Rattus norvegicus; experiment: Ability to stimulate intestinal-calcium transport by the administration of compound in rats at a concentration of 5 pmol at 47 hr.; assay type: functional, Intestine
[10] = tested on: Rattus norvegicus; experiment: Ability to stimulate intestinal-calcium transport by the administration of compound in rats at a concentration of 5000 pmol at 13 hr.; assay type: functional, Intestine
[11] = tested on: Rattus norvegicus; experiment: Ability to stimulate intestinal-calcium transport by the administration of compound in rats at a concentration of 500 pmol at 13 hr.; assay type: functional, Intestine
[12] = tested on: Rattus norvegicus; experiment: Ability to mobilize Bone-Calcium transport, following the administration of compound in rats at a concentration of 50 pmol at 47 hr.; assay type: functional, organism-based
[13] = tested on: Rattus norvegicus; experiment: Ability to stimulate intestinal-calcium transport by the administration of compound in rats at a concentration of 500 pmol at 72 hr.; assay type: functional, Intestine
[14] = tested on: Rattus norvegicus; experiment: Ability to stimulate intestinal-calcium transport by the administration of compound in rats at a concentration of 5 pmol at 13 hr.; assay type: functional, Intestine
[15] = tested on: Rattus norvegicus; experiment: Ability to stimulate intestinal-calcium transport by the administration of compound in rats at a concentration of 50 pmol at 47 hr.; assay type: functional, Intestine
[16] = tested on: Rattus norvegicus; experiment: Ability to mobilize Bone-Calcium transport, following the administration of compound in rats at a concentration of 500 pmol at 72 hr.; assay type: functional, organism-based
[17] = tested on: Rattus norvegicus; experiment: Ability to stimulate intestinal-calcium transport by the administration of compound in rats at a concentration of 5000 pmol at 72 hr.; assay type: functional, Intestine
[18] = tested on: Rattus norvegicus; experiment: Ability to mobilize Bone-Calcium transport, following the administration of compound in rats at a concentration of 5 pmol at 72 hr.; assay type: functional, organism-based
[19] = tested on: Rattus norvegicus; experiment: Ability to stimulate intestinal-calcium transport by the administration of compound in rats at a concentration of 500 pmol at 47 hr.; assay type: functional, Intestine
[20] = organism: Rattus norvegicus; experiment: Calcium binding protein induction in duodenal organ culture at a concentration of 100 nM in Male Albino rats; assay type: functional
[21] = tested on: Rattus norvegicus; experiment: Ability to stimulate intestinal-calcium transport by the administration of compound in rats at a concentration of 50 pmol at 13 hr.; assay type: functional, Intestine
[22] = organism: Rattus norvegicus; experiment: Calcium binding protein induction in duodenal organ culture at a concentration of 1 nM in Male Albino rats; assay type: functional
[23] = tested on: Rattus norvegicus; experiment: Ability to stimulate intestinal-calcium transport by the administration of compound in rats at a concentration of 5 pmol at 69 hr.; assay type: functional, Intestine
[24] = tested on: Rattus norvegicus; experiment: Ability to stimulate intestinal-calcium transport by the administration of compound in rats at a concentration of 5000 pmol at 48 hr.; assay type: functional, Intestine
[25] = tested on: Rattus norvegicus; experiment: Ability to mobilize Bone-Calcium transport, following the administration of compound in rats at a concentration of 5 pmol at 69 hr.; assay type: functional, organism-based
[26] = tested on: Rattus norvegicus; experiment: Ability to mobilize Bone-Calcium transport, following the administration of compound in rats at a concentration of 5 pmol at 12 hr.; assay type: functional, organism-based
[27] = tested on: Rattus norvegicus; experiment: Ability to stimulate intestinal-calcium transport by the administration of compound in rats at a concentration of 50 pmol at 48 hr.; assay type: functional, Intestine
[28] = tested on: Rattus norvegicus; experiment: Ability to mobilize Bone-Calcium transport, following the administration of compound in rats at a concentration of 5000 pmol at 12 hr.; assay type: functional, organism-based
[29] = tested on: Rattus norvegicus; experiment: Ability to stimulate intestinal-calcium transport by the administration of compound in rats at a concentration of 5 pmol at 12 hr.; assay type: functional, Intestine
[30] = tested on: Rattus norvegicus; experiment: Ability to mobilize Bone-Calcium transport, following the administration of compound in rats at a concentration of 5 pmol at 48 hr.; assay type: functional, organism-based
[31] = tested on: Rattus norvegicus; experiment: Ability to stimulate intestinal-calcium transport by the administration of compound in rats at a concentration of 500 pmol at 69 hr.; assay type: functional, Intestine
[32] = tested on: Rattus norvegicus; experiment: Ability to mobilize Bone-Calcium transport, following the administration of compound in rats at a concentration of 500 pmol at 69 hr.; assay type: functional, organism-based
[33] = tested on: Rattus norvegicus; experiment: Ability to mobilize Bone-Calcium transport, following the administration of compound in rats at a concentration of 5000 pmol at 69 hr.; assay type: functional, organism-based
[34] = tested on: Rattus norvegicus; experiment: Ability to mobilize Bone-Calcium transport, following the administration of compound in rats at a concentration of 50 pmol at 12 hr.; assay type: functional, organism-based
[35] = tested on: Rattus norvegicus; experiment: Ability to stimulate intestinal-calcium transport by the administration of compound in rats at a concentration of 50 pmol at 12 hr.; assay type: functional, Intestine
[36] = tested on: Rattus norvegicus; experiment: Ability to stimulate intestinal-calcium transport by the administration of compound in rats at a concentration of 500 pmol at 48 hr.; assay type: functional, Intestine
[37] = tested on: Rattus norvegicus; experiment: Ability to stimulate intestinal-calcium transport by the administration of compound in rats at a concentration of 5000 pmol at 69 hr.; assay type: functional, Intestine
[38] = tested on: Rattus norvegicus; experiment: Ability to stimulate intestinal-calcium transport by the administration of compound in rats at a concentration of 50 pmol at 69 hr.; assay type: functional, Intestine
[39] = tested on: Rattus norvegicus; experiment: Ability to mobilize Bone-Calcium transport, following the administration of compound in rats at a concentration of 5000 pmol at 48 hr.; assay type: functional, organism-based
[40] = tested on: Rattus norvegicus; experiment: Ability to mobilize Bone-Calcium transport, following the administration of compound in rats at a concentration of 500 pmol at 12 hr.; assay type: functional, organism-based

SMILES | Serum Ca2+ [2] | Serum Ca2+ [4] | Serum Ca2+ [5] | Serum Ca2+ [6] | Serum Ca2+ [7] | Serosal/Mucosal Ca [8] | Serosal/Mucosal Ca [9] | Serosal/Mucosal Ca [10] | Serosal/Mucosal Ca [11] | Serum Ca2+ [12] | Serosal/Mucosal Ca [13] | Serosal/Mucosal Ca [14] | Serosal/Mucosal Ca [15] | Serum Ca2+ [16] | Serosal/Mucosal Ca [17] | Serum Ca2+ [18] | Serosal/Mucosal Ca [19] | Serosal/Mucosal Ca [21] | Serosal/Mucosal Ca [23] | Serosal/Mucosal Ca [24] | also measured
C=C1CC[C@H](O)C/C1=C/C=C1\CCC[C@]2(C)[C@@H]([C@H](C)CCC(F)(F)C(O)(CC)CC)CC[C@@H]12 | 4.14 mg/dL | 4.64 mg/dL | 4.34 mg/dL | 6.16 mg/dL | 4.2 mg/dL | 11.06 | 2.59 | 4.84 | 5.85 | 4.63 mg/dL | 7.29 | 2.3 | 3.29 | 4.38 mg/dL | 9.39 | 4.2 mg/dL | 8.04 | 2.18 | – | – | Relative potency [1]: 4.5; Ca2+ binding protein [3]: 22.4 ug (100mg of duodenum)-1; Ca2+ binding protein [20]: 66.7 ug (100mg of duodenum)-1; Ca2+ binding protein [22]: 10.1 ug (100mg of duodenum)-1
C=C1/C(=C\C=C2/CCC[C@]3(C)[C@@H]([C@H](C)CCC(F)(F)C(O)(CC)CC)CC[C@@H]23)C[C@@H](O)C[C@@H]1O | – | – | – | – | – | – | – | – | – | – | – | – | – | – | – | – | – | – | 2.34 | 8 | Serum Ca2+ [25]: 4.13 mg/dL; Serum Ca2+ [26]: 4.34 mg/dL; Serosal/Mucosal Ca [27]: 4.25; Serum Ca2+ [28]: 6.4 mg/dL; Serosal/Mucosal Ca [29]: 2.85; Serum Ca2+ [30]: 3.98 mg/dL; Serosal/Mucosal Ca [31]: 5.46; Serum Ca2+ [32]: 4.87 mg/dL; Serum Ca2+ [33]: 4.82 mg/dL; Serum Ca2+ [34]: 5.5 mg/dL; Serosal/Mucosal Ca [35]: 4.41; Serosal/Mucosal Ca [36]: 5.39; Serosal/Mucosal Ca [37]: 8.84; Serosal/Mucosal Ca [38]: 3.04; Serum Ca2+ [39]: 5.86 mg/dL; Serum Ca2+ [40]: 6.12 mg/dL
C=C1CC[C@H](O)C/C1=C/C=C1\CCC[C@]2(C)[C@@H]([C@H](C)CCCC(C)(C)O)CC[C@@H]12 [CALCIFEDIOL ANHYDROUS] | 4.86 mg/dL | 4.52 mg/dL | 4.66 mg/dL | 6.24 mg/dL | 4.4 mg/dL | 11.01 | 3.41 | 5.43 | 3.6 | 4.68 mg/dL | 9.89 | 2.22 | 11.54 | 5.04 mg/dL | 11.48 | 4.32 mg/dL | 9.99 | 3.75 | – | – | –
C=C1/C(=C\C=C2/CCC[C@]3(C)[C@@H]([C@H](C)CCCC(C)(C)O)CC[C@@H]23)C[C@@H](O)C[C@@H]1O [CALCITRIOL] | – | – | – | – | – | – | – | – | – | – | – | – | – | – | – | – | – | – | 2.75 | 7.22 | Serum Ca2+ [25]: 4.12 mg/dL; Serum Ca2+ [26]: 4.38 mg/dL; Serosal/Mucosal Ca [27]: 4.71; Serum Ca2+ [28]: 6.14 mg/dL; Serosal/Mucosal Ca [29]: 2.62; Serum Ca2+ [30]: 4.08 mg/dL; Serosal/Mucosal Ca [31]: 5.67; Serum Ca2+ [32]: 4.48 mg/dL; Serum Ca2+ [33]: 4.78 mg/dL; Serum Ca2+ [34]: 5.58 mg/dL; Serosal/Mucosal Ca [35]: 3.23; Serosal/Mucosal Ca [36]: 5.98; Serosal/Mucosal Ca [37]: 4.99; Serosal/Mucosal Ca [38]: 5.69; Serum Ca2+ [39]: 4.78 mg/dL; Serum Ca2+ [40]: 6.1 mg/dL
